Calls of active or inactive are those of the source.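 Rule for the calls: active = fitted rise in melting shift crosses a set limit at or below the top valid dose tested; inconclusive = flat fit at mid-level activity, or a poor quality fit; inactive = the rest.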

Sequence of Fibroblast growth factor 22 (Homo sapiens) (Q9HCT0 whole entry, looked up): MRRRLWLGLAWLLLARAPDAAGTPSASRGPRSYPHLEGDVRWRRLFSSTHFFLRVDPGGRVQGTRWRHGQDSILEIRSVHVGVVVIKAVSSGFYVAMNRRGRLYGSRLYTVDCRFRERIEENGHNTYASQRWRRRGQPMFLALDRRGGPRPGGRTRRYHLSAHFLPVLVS

The experiment addresses Fibroblast growth factor 22 (Homo sapiens) (UniProt Q9HCT0). Description: FGF22 melting temperature shift by ligands – biophysical, thermal shift, cherry-pick retest, FGF22 synaptogenesis inhibitor project, dose response (AID 720646). The following applies: recombinant FGF22 thermal shift, SYPRO orange fluorescence.
For `CC1([N+](=O)[O-])COP(=O)(NC2CC2)OC1` (centres undefined), the AC is 21.5 µM.
The same measure for `O=C(N/N=C\c1c[nH]c2ccccc12)c1ccc(O)cc1`: 16.8 µM; for `Cc1[nH]c2ccc(C(=O)OCC(=O)Nc3cccc(S(N)(=O)=O)c3)cc2c1C`: 10.1 µM.
Turning to `COc1ccc(N2CCN(CCOc3ccc4c(C)cc(=O)oc4c3)CC2)cc1`, the AC was > 38 µM (inactive).
Take `CSc1ccc(/C=N/NC(=O)c2ccc3nc[nH]c3c2)cc1`: the AC is 37.7 µM.
Take `N#Cc1ccc(NC(=O)Nc2cccc(C#N)c2)cc1`: the AC is 30.1 µM.
In the case of `CC1(C(=O)NS(=O)(=O)Cc2cccc(Cl)c2)CCN1C(=O)C1(c2ccc(Cl)cc2)CCC1` (centres undefined) it was 24.4 µM.
The same measure for `O=C(N/N=C/c1c[nH]c2ccccc12)c1cccs1`: 23.4 µM; for `C[C@@H]1CN([C@@H](C)CO)S(=O)(=O)c2ccc(-c3cccc(C#N)c3)cc2O[C@@H]1CN(C)C(=O)Nc1cc(F)ccc1F`: > 38 µM (inactive).
In the case of `COc1ccc(NC(=O)CCCN2C(=O)CN(C)C2=O)c(OC)c1` it was > 38 µM (inactive).
For the compound `Nc1nnc(CC(=O)N/N=C/c2cc([N+](=O)[O-])cc(Br)c2O)s1`, the AC was 24.7 µM.
In the case of `CCC(CC)CN1CCC(CN2C(=O)C(=O)NC[C@@H]2CC(C)C)CC1` it was > 38 µM (inactive).
For `Cc1cc(C(=O)N/N=C/c2c[nH]c3ccccc23)cs1`, the AC was 30.3 µM.
In the case of `CC(=O)Nc1cccc(C(=O)N/N=C/c2c[nH]c3ccccc23)c1` it was 13.7 µM.
For the compound `CCC(=O)Nc1nc(C)c(-c2csc(Nc3ccccn3)n2)s1`, the AC was 21.6 µM.
The same measure for `O=S1(=O)N=C(N(Cc2cccs2)c2ccc(O)cc2)c2ccccc21`: 20.4 µM; for `C[C@@H]1CN([C@H](C)CO)C(=O)Cc2cc(N(C)C)ccc2O[C@@H]1CN(C)Cc1ccc(Cl)c(Cl)c1`: 37.3 µM; for `O=C(N/N=C/c1c[nH]c2ccccc12)c1cccc(Cl)c1`: 27.9 µM.
The same measure for `O=C(O)c1[nH]c2ccc(Br)cc2c1CCN1C(=O)c2cccc([N+](=O)[O-])c2C1=O`: > 38 µM (inactive); for `CNC[C@H]1Oc2ccc(NC(=O)Cc3cn(C)c4ccccc34)cc2C(=O)N([C@H](C)CO)C[C@H]1C`: > 42 µM (inactive); for `Cn1c(=O)c2c(-c3ccccc3)n(-c3cc(Cl)c([N+](=O)[O-])cc3O)cc2n(C)c1=O`: 28.3 µM.
For the compound `NC(=O)c1ccsc1NC(=O)COC(=O)Cc1c[nH]c2ccccc12`, the AC is 27.6 µM.
The same measure for `CC1C=NC(S(=O)(=O)N2CC[C@@H]3[C@@H](CO)N(C)c4ccc(-c5ccc(F)cc5)cc4[C@@H]32)=N1` (some centres undefined): > 38 µM (inactive); for `CC(C)c1c(C(=O)N/N=C/c2c[nH]c3ccccc23)nnn1-c1nonc1N`: 27.4 µM.
For `COc1ccc(/C=N/Nc2ccc([N+](=O)[O-])cc2)cc1O`, the AC was 36.6 µM.
As to `O=S(=O)(Nc1nnc(C(F)(F)F)s1)c1ccc(Cl)cc1`, the AC was 37.5 µM.
The same measure for `Cc1onc(-c2ccccc2)c1C(=O)Nc1ncc([N+](=O)[O-])s1`: 34 µM; for `O=C(N[C@H]1C=C[C@H](CC(=O)N2CCCCC2)O[C@H]1CO)c1cccc(F)c1`: 35.5 µM; for `O=C(Cc1n[nH]c(=O)[nH]c1=O)N/N=C/c1c(O)ccc2ccccc12`: > 38 µM (inactive).
As for `COC(=O)C(C)Oc1cc(OC(C)C(=O)OC)c2c(C)c(Cl)c(=O)oc2c1` (centres undefined), the AC was > 38 µM (inactive).
The same measure for `Cc1ccc(NC(=O)c2ccc(OCc3c(C)noc3C)cc2)c(C)c1`: 34.2 µM; for `O=C(CC1SC(=O)NC1=O)Nc1ccc(Cl)cc1` (centres undefined): 33.2 µM.
In the case of `O=C(Nc1ccc(S(=O)(=O)N2CCOCC2)cc1)c1ccc(F)cc1` it was > 38 µM (inactive); in that of `Cc1cc(C)cc(NC(=O)CN2C(=O)NC(Cc3c[nH]c4ccccc34)C2=O)c1` (centres undefined), > 38 µM (inactive).

Values taken from PubChem BioAssay AID720646 (Broad Institute, 2013).
